Values after ≈ are worked out from the molar mass of the structure shown. Where two headings read alike, the source gives them in different places.
Assays:
[1] = tested on: Mycobacterium tuberculosis H37Rv (ATCC 27294); assay: Antitubercular REMA (Resazurin Microtiter Assay); assay type: cell-based; conditions: Mycobacterium tuberculosis, 168 h, read-out: Mt MIC
E. coli = tested on: E. coli; set-up: method as in PMID 17662960; conditions: cited from earlier work
S. aureus strains = tested on: S. aureus strains; set-up: method as in PMID 28066373; conditions: cited from earlier work
M. tuberculosis = tested on: M. tuberculosis; set-up: method as in PMID 26400221; conditions: cited from earlier work
[2] = tested on: Escherichia coli (ATCC 10536); assay: Antibacterial broth microdilution (MIC), E. coli; conditions: for MIC: ATCC10536, 24 h, read-out: Ec MIC
[3] = tested on: Staphylococcus aureus (ATCC 14458); assay: Antibacterial broth microdilution (MIC/MBC), S. aureus; conditions: for MIC: ATCC14458, 24 h
[4] = tested on: Streptococcus mutans (ATCC 25175); assay: Antibacterial broth microdilution (MIC/MBC), S. mutans; conditions: for MIC: ATCC25175, 24 h; for MBC: ATCC25175, read-out: Sm MBC
[5] = tested on: Pseudomonas aeruginosa (ATCC 15442); assay: Antibacterial broth microdilution (MIC), P. aeruginosa; conditions: for MIC: ATCC15442, 24 h, read-out: Pa MIC
[6] = tested on: Streptococcus sanguinis (ATCC 10557); assay: Antibacterial broth microdilution (MIC/MBC), S. sanguinis; conditions: for MIC: ATCC10557, 24 h; for MBC: ATCC10557, read-out: Ss MBC
[7] = tested on: A549 (human lung adenocarcinoma epithelial cell line, ATCC CCL-185); assay: Cytotoxicity on lung cells (resazurin), A549; assay type: cell-based; conditions: 24 h incubation
[8] = DPPH radical scavenging ability; conditions: at 1600, 800, 400, and 200 µM; DPPH 100 μM, 30 min, 25 °C
Excerpt: The low selectivity of the cinnamylideneacetophenones 3 and 4 can be correlated with their phenolic nature. Studies report the ability of phenolic compounds to act on widespread radical processes shared by eukaryotic and prokaryotic cells. We hypothesized this behavior may be responsible by simultaneous activity toward bacteria and pulmonary cells. Therefore, we evaluated the radical scavenging ability of 3 and 4 using DPPH (2,2-diphenyl-1-picrylhydrazyl) protocol. […] Altogether, low selectivity of 3 and 4 cannot be strongly related to radical processes. Quercetin and gallic acid were used as positive controls due to their phenolic nature and potent radical scavenging ability.
Radical scavenging activity of compounds 3 and 4 was determined using 2,2-diphenyl-1-picrylhydrazyl (DPPH). Aliquots of 10 µL of 3, 4, and positive controls (quercetin and gallic acid) at concentrations 1600, 800, 400, and 200 μM (in EtOH) were individually added in 190 µL DPPH (100 μM). The mixtures were incubated in the dark at 25 °C for 30 min. Remaining DPPH was determined spectroscopically at 490 nm by blanking against absolute ethanol. Radical scavenging ability was expressed by using mean values obtained from triplicates as the percentage of radicals reduced by calculating the following equation: DPPH scavenging % = [1 − (Asample/A) × 100], where A is test absorbance without sample (only EtOH and DPPH) and Asample is test absorbance with compounds.

[9] = Cytotoxicity on lung cells (resazurin), MRC-5; conditions: human, MRC-5 cells (lung fibroblast cell line, ATCC CCL-171)
[10] = tested on: MRC-5 (human lung fibroblast cell line, ATCC CCL-171); assay: Cytotoxicity on lung cells (resazurin), MRC-5; conditions: Homo sapiens, MRC5, read-out: IC50 on pulmonary cells
[11] = Partition coefficient log Po/w by HPLC-PDA (OECD method); conditions: n-octanol/water (from HPLC retention on a C-18 column)
in vitro = conditions: human
[12] = broth microdilution, 24 h, tested 3.9 to 500 µM
[13] = ATCC14458, read-out: MIC and MBC values

SMILES | MIC [1] | MIC [2] | MIC ([3]; read-out: Sa MIC) | MIC ([4]; read-out: Sm MIC) | MIC [5] | MIC ([6]; read-out: Ss MIC) | IC50 [7] | percentages of DPPH scavenging ability [8] | IC50 at 24 h [9] | IC50 [10] | MBC [3, 13] | MBC ([3]; ATCC14458, read-out: Sa MBC) | MBC [4] | MBC [6] | further results
O=C/C=C/c1ccccc1 [Compound 1, Cinnamaldehyde, reference compound] | > 200 µM | > 500 µM | > 500 µM | > 500 µM | > 500 µM | > 500 µM |  |  |  |  |  |  |  |  | MIC against E. coli (E. coli): 1000 µg/mL; MIC against E. coli (E. coli; converted value in brackets): 7566 µM; MIC against S. aureus strains (S. aureus strains): 250 µg/mL; MIC against S. aureus strains (S. aureus strains; converted value in brackets): 1891 µM; MIC against M. tuberculosis (M. tuberculosis): 3.12 µg/mL; MIC against M. tuberculosis (M. tuberculosis; converted value in brackets): 23 µM; Ec MIC ([2]; broth microdilution, 24 h): >500 µM; Sa MIC [3, 12]: >500 µM; Sm MIC [4, 12]: >500 µM; Pa MIC ([5]; broth microdilution, 24 h): >500 µM; Ss MIC [6, 12]: >500 µM
O=C(/C=C/C=C/c1ccccc1)c1cccc(O)c1 [Compound 3, (2E,4E)-1-(3-hydroxyphenyl)-5-phenylpenta-2,4-dien-1-one] |  | > 500 µM |  |  | > 500 µM |  | 96.7 µM | below 8% | 46.3 µM | 46.3 to 96.7 µM | 77.9 to 312 µM (≈ 19.5 to 78.1 µg/mL) | 156 µM (≈ 39 µg/mL) | 156 µM (≈ 39 µg/mL) | 156 µM (≈ 39 µg/mL) | MIC ([1]; M. tuberculosis H37Rv, REMA, 7 days, lowest concentration giving 90% inhibition of growth): 88.8 µM (≈ 22.2 µg/mL); MIC ([3]; read-out: Sa MIC, Staphylococcus aureus, broth microdilution, 24 h, tested 3.9 to 500 µM): 77.9 µM (≈ 19.5 µg/mL); MIC ([4]; read-out: Sm MIC, Streptococcus mutans, broth microdilution, 24 h, tested 3.9 to 500 µM): 77.9 µM (≈ 19.5 µg/mL); chromatographic logP [11]: 2.7; MIC ([6]; read-out: Ss MIC, Streptococcus sanguinis, broth microdilution, 24 h, tested 3.9 to 500 µM): 77.9 µM (≈ 19.5 µg/mL)
O=C(/C=C/C=C/c1ccccc1)c1ccc(O)cc1 [Compound 4, (2E,4E)-1-(4-hydroxyphenyl)-5-phenylpenta-2,4-dien-1-one] | 81.9 µM (≈ 20.5 µg/mL) | > 500 µM | 77.9 µM (≈ 19.5 µg/mL) | 156 µM (≈ 39 µg/mL) | > 500 µM | 156 µM (≈ 39 µg/mL) | 77.5 µM | below 8% |  | 46.3 to 96.7 µM | 77.9 to 312 µM (≈ 19.5 to 78.1 µg/mL) | 77.9 µM (≈ 19.5 µg/mL) | 312 µM (≈ 78.1 µg/mL) | 312 µM (≈ 78.1 µg/mL) | chromatographic logP (physchem): 2.6; IC50 (in vitro): 53.1 µM
COc1cccc2c1C(=O)c1c(O)c3c(c(O)c1C2=O)C[C@@](O)(C(=O)CO)C[C@@H]3O[C@H]1C[C@H](N)[C@H](O)[C@H](C)O1 [doxorubicin, reference compound] |  |  |  |  |  |  | 1.8 µM |  | 0.7 µM |  |  |  |  |  | 

Source: publication PMC6151560, “Antibacterial and Antitubercular Activities of Cinnamylideneacetophenones” (Molecules : A Journal of Synthetic Chemistry and Natural …, 2017)
